The target in the first assay is T1, human 5-HT2C receptor (Homo sapiens, UniProt P28335).
T1 construct: expressed in transfected cells; host or cells: HEK293
T1 sequence (P28335 33-458): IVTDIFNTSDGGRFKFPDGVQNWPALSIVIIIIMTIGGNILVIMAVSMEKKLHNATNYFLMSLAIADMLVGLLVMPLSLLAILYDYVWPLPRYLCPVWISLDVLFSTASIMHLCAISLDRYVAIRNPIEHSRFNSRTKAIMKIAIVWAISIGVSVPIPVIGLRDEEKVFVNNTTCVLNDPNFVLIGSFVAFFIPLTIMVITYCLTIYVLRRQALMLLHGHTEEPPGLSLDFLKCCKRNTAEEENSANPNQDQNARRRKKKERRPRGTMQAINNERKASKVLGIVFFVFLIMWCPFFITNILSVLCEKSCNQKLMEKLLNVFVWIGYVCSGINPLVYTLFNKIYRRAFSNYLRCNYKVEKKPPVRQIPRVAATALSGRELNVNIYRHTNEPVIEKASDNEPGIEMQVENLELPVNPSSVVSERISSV
Nature of the assay: Intracellular IP3 Accumulation Assay. In kind it is cell-based. Particulars: HEK293 cells transfected with human 5-HT2C receptor; averages of at least two trials; read-out: 5-HT2C (EC50) IP Accumulation Assay. On the procedure: HEK293 cells were transfected in 15 cm sterile dishes with or without (control) 16 μg of human 5-HT2C receptor cDNA using 25 μl of lipofectamine. Cells were then incubated for 3-4 hours at 37° C./5% CO2 and then transfection media was removed and replaced with 100 μl of DMEM. Cells were then plated onto 100 cm sterile dishes. The next day cells were plated into 96 well PDL microtiter plates at a density of 55K/0.2 ml. Six hours latter, media was exchanged with [^3H]inositol (0.25 μCi/well) in inositol free DMEM and plates were incubated at 37° C./5% CO2 overnight. The next day, wells were aspirated and 200 μl of DMEM containing test compound, 10 μM pargyline, and 10 mM LiCl was added to appropriate wells. Plates were then incubated at 37° C./5% CO2 for three hours followed aspiration and by addition of fresh ice cold stop solution (1M KOH, 19 mM Na-borate, 3.8 mM EDTA) to each well. Plates were kept on ice for 5-10 min and the wells were neutralized by addition of 200 μl of fresh ice cold neutralization solution (7.5% HCl). Plates were then frozen until further processing is desired. The lysate was then transferred into 1.5 ml Eppendorf tubes and 1 ml of chloroform/methanol (1:2) was added/tube. The solution was vortexed for 15 seconds and the upper phase was applied to a Biorad AG1-X8™ anion exchange resin (100-200 mesh). First, the resin was washed with water at 1:1.25 W/V and 0.9 ml of upper phase was loaded onto the column. The column was then washed with 10 ml of 5 mM myo-inositol and 10 ml of 5 mM Na-borate/60 mM Na-formate. The inositol tris phosphates were eluted into scintillation vials containing 10 ml of scintillation cocktail with 2 ml of 0.1 M formic acid/1 M ammonium formate. The columns were regenerated by washing with 10 ml of 0.1 M formic acid/3M ammonium formate and rinsed twice with dd H2O and stored at 4° C. in water.
Usually EC50 stands for the concentration giving half of the maximal effect. As to `COc1cc2c(cc1Br)C(C)CNCC2` (racemic) [Example 1, (R,S) 8-Bromo-7-methoxy-1-methyl-2,3,4,5-tetrahydro-1H-3-benzazepine], the EC50 was 4.2 nM.
For `COc1cc2c(cc1I)C(C)CNCC2` (racemic) [Example 3, (R,S) 8-Iodo-7-methoxy-1-methyl-2,3,4,5-taetrhydro-1H-3-benzazepine], the EC50 is 1.4 nM.
Same read-out and setting: the value for `CC1CNCCc2ccc(Br)cc21` (racemic) [Example 32, (R,S) 8-Bromo-1-methyl-2,3,4,5-tetrahydro-1H-3-benzazepine] was 2.1 nM.
Same read-out and setting: the same measure for `CC1CNCCc2cc(O)c(Br)cc21` (racemic) [Example 4, (R,S) 8-Bromo-7-hydroxy-1-methyl-2,3,4,5-tetrahydro-1H-3-benzazepine]: 2.1 nM.
Still for that read-out and setting: the value for `C=CCOc1cc2c(cc1I)C(C)CNCC2` (racemic) [Example 12, (R,S) 7-Allyloxy-8-iodo-1-methyl-2,3,4,5-tetrahydro-1H-3-benzazepine] was 6.3 nM.
Take `COc1cc2c(cc1Cl)C(C)CNCC2` (racemic) [Example 2, (R,S) 8-Chloro-7-methoxy-1-methyl-2,3,4,5-tetrahydro-1H-3-benzazepine]: the EC50 is 4.5 nM.
Same read-out and setting: the value for `CCC1CNCCc2cc(OC)c(Br)cc21` (racemic) [Example 19, (R,S) 8-Bromo-1-ethyl-7-methoxy-2,3,4,5-tetrahydro-1H-3-benzazepine] was 18 nM; that for `C=CCOc1cc2c(cc1Br)C(C)CNCC2` (racemic) [Example 5, (R,S) 7-Allyloxy-8-bromo-1-methyl-2,3,4,5-tetrahydro-1H-3-benzazepine] was 12.1 nM.

A further assay deals with Sprague-Dawley (SD) rats. Nature of the assay: Food intake in rats: selective 5HT-2C agonist alone, phentermine alone, or combination (Example 59). In kind it is in vivo, rat. Conditions: female SD rats; perorally; 2 h food intake; FIG. 3A; two-way ANOVA, Bonferroni p<0.01. The procedure: Female (weight 225-250 g) and male (weight 250-275 g) Sprague-Dawley (SD) rats were purchased from Harlan (San Diego, Calif.) and housed 4 per cage in a temperature controlled environment under a 17 h/7 h light/dark cycle (lights out at 10:00 am). Water and Chow was available (LabDiet 8604) ad libitum for two weeks. The animals were handled for 2 occasions during this time. On the morning of the study, the animals were individually housed with no food or bedding and dosed perorally with 1 ml/kg of compound or vehicle 30 minutes prior to lights out. At lights out, the animals were given a pre-weighed amount of chow and placed near the food bowl. Two hours later the remaining chow was weighed and the study concluded.
For the molecule `CC(C)(N)Cc1ccccc1` [phentermine, 1,1-Dimethyl-2-phenyl-ethylamine, reference compound], the “effect on food intake in female rats” value was “No other significant differences between groups”.
For the molecule `C[C@H]1CNCCc2ccc(Cl)cc21` [Compound B, (R)-8-chloro-1-methyl-2,3,4,5-tetrahydro-1H-3-benzazepine], the “effect on food intake in female rats” value is given as “No other significant differences between groups”.

Still in this assay, the particulars now being: male SD rats; perorally; 2 h food intake; FIG. 3B; two-way ANOVA, Bonferroni p<0.01.
Take `CC(C)(N)Cc1ccccc1` [phentermine, 1,1-Dimethyl-2-phenyl-ethylamine, reference compound]: the “effect on food intake in male rats” value was “No other significant differences between groups”.
For the molecule `C[C@H]1CNCCc2ccc(Cl)cc21` [Compound B, (R)-8-chloro-1-methyl-2,3,4,5-tetrahydro-1H-3-benzazepine], the “effect on food intake in male rats” value is “No other significant differences between groups”.

The values are drawn from patent publication US8546378B2, “5HT2C receptor modulator compositions and methods of use” (Arena Pharmaceuticals, Inc., priority 2004, dated 2013).
